This note sets out measurements from US20260226031A1, “NOVEL COMPOUNDS” (NRG THERAPEUTICS LTD., priority 2023, published 2026).

The test system of assay [1] is mPTP. Kind of assay: mPTP activity (Ca2+ retention) assay in isolated rat liver mitochondria. The format is biochemical. Conditions: isolated rat liver mitochondria; Fluo5N fluorescence at 10 min after CaCl2 (75 μM) bolus; DMSO 0%, 5 μM cyclosporin A 100% inhibition. The text has this:
Pharmacological inhibition or modulation of the mPTP can be measured in well characterised ‘Ca^2+ retention’ assays performed in isolated mitochondria. In vitro, isolated mitochondria rapidly sequester exogenous Ca^2+ until the intramitochondrial Ca^2+ concentration reaches the threshold for mPTP activation. Once the pore is activated, mitochondrial integrity is compromised and the stored Ca^2+ is released. The distribution of Ca^2+ between extra- and intra-mitochondrial compartments can be measured in real time with the use of membrane-impermeant Ca^2+ sensitive fluorescent dyes. Depending on the configuration of the assay, inhibition or modulation of the mPTP either delays the opening of the pore or increases the concentration of Ca^2+ required to induce mPTP opening.
MPTP activity was measured in mitochondria freshly isolated from female Sprague Dawley (250 to 300 gram) rat livers using the following method. Cervical dislocation was performed on the rat. The liver was then perfused in-situ with ~40 ml cold Dulbecco's Phosphate Buffered Saline (DPBS) prior to dissection and transferred into 30 ml Isolation Buffer (250 mM Sucrose, 10 mM KCl, 1 mM EGTA, 1 mM EDTA, 25 mM HEPES, adjusted to pH 7.5 with 1M NaOH). Each lobe of the liver was then removed from the buffer, minced using tweezers and a scalpel into ~5 mm pieces then transferred into a 50 ml Potterton dounce homogenization tube on ice containing 30 ml ice-cold centrifugation buffer (300 mM Trehalose, 25 mM HEPES, 1 mM EGTA, 1 mM EDTA, 10 mM KCl, adjusted to pH 7.5 with 1M NaOH and supplemented with 0.1% bovine serum albumin (BSA) and complete protease inhibitor cocktail (one tablet of inhibitor per 50 mls of buffer). Homogenisation was carried out using a Teflon® pestle at 1800 rpm. The slurry was centrifuged at 800 g for 10 min at 4° C., then the supernatant centrifuged at 10,000 g for 10 min. The pellet was washed once with FLIPR assay buffer (75 mM Mannitol, 25 mM Sucrose, 5 mM Potassium Phosphate Monobasic, 20 mM Tris base, 100 mM KCl, 0.1% BSA adjusted to pH 7.4 with 5M HCl) centrifuged again, then resuspended in FLIPR assay buffer to a concentration of 8.8 mg/ml protein.
Tested compounds (10 mM stock in DMSO) were serially diluted in DMSO in half log steps to generate 10 test concentrations (final concentrations in assay 30 μM to 1 nM). An intermediate dilution of 5 μl DMSO samples into 247 μl FLIPR assay buffer was carried out prior to transfer of 5 μl into duplicate wells of a 384 well polypropylene assay plate. Control wells were 0.5% (v/v) DMSO and 5 μM cyclosporin A.
A stock mitochondria/Fluo5N assay solution was prepared in 5.6 ml FLIPR assay buffer (at RT) supplemented with succinate disodium salt (10 mM), rotenone (1 μM), Fluo5N pentapotassium salt (2 μM) and 1 ml mitochondria suspension, then transferred (15 μl) into the assay plate containing test compounds and incubated for 10 min at RT. Assay plates were processed for fluorescence detection on either a FLIPR Tetra (Molecular Devices) or CLARIOstar (BMG) plate reader. For kinetic fluorescence detection on the FLIPR, dye fluorescence was measured every 3 sec for a total of 10 min. After 12 sec, a 2.5 μl bolus of CaCl2 (75 μM) was added from a source plate containing 675 μM CaCl2 in FLIPR assay buffer. Alternatively, the 2.5 μl addition of CaCl2 was performed using a Viaflow 384, plates were incubated at RT for 10 min, and dye fluorescence measured after 10 min on the CLARIOstar plate reader. pIC50 values for tested compounds were calculated using the fluorescence value collected at the 10 min timepoint on either plate reader, with % inhibition calculated using the DMSO control and cyclosporin A values as 0 and 100% respectively.

The subject of assay [2] is mPTP. Nature of the assay: mPTP activity (Ca2+ retention) assay in isolated rat brain mitochondria. The format is biochemical. Conditions: isolated rat brain mitochondria; Fluo5N fluorescence at 10 min after Ca2+ (75 μM) bolus. The protocol:
MPTP activity was measured in brain mitochondria freshly isolated from female Sprague Dawley (250 to 300 gram) rats. Anaesthetised rats were perfused in-situ with ~40 ml cold Dulbecco's Phosphate Buffered Saline (DPBS), then brains dissected and transferred into 30 ml Isolation Buffer (225 mM mannitol, 75 mM sucrose, 1 mM EGTA, adjusted to pH 7.4 with 1M NaOH). The brain was minced using tweezers and a scalpel into ~5 mm pieces then transferred into a 50 ml Potterton Dounce homogenization tube on ice containing 10 ml ice-cold isolation buffer (as above with addition of Complete Protease inhibitor; 1 tablet per 50 ml buffer). Homogenisation was carried out using a Teflon® pestle at 1800 rpm. The slurry was centrifuged at 2000 g for 10 min at 4° C., then the supernatant centrifuged at 12,000 g for 9 min. The pellet was resuspended with a dounce homogeniser in isolation buffer as above but with the addition of 0.02% digitonin, centrifuged at 12,000 g for 11 min and finally resuspended in 5 ml modified isolation buffer (as above but with EGTA reduced to 0.1 mM).
Test compounds were prepared in 384 well polypropylene assay plates as described above for the liver mitochondria assay. A stock mitochondria/Fluo5N assay solution was prepared in 5.6 ml assay buffer (120 mM mannitol, 40 mM MOPS, 5 mM KH2PO4, 60 mM KCl, 10 mM pyruvate, 2 mM malate, 2 mM MgCl2, 20 μM ADP, 1.26 μM oligomycin A, adjusted to pH 7.4) supplemented with Fluo5N pentapotassium salt (2 μM) and 1 ml mitochondria suspension, then transferred (15 μl) into the assay plate containing test compounds and incubated for 10 min at RT. Assay plates were then transferred to a FLIPR Tetra plate reader (Molecular Devices). Dye fluorescence was then measured every 3 sec for a total of 10 min.

The structures appear in SMILES notation.

For the molecule `COc1ccc(C2CN(C(=O)c3cncc(=O)[nH]3)CC23CCC3)cc1` (single isomer, unassigned) [Example 28b, 6-(8-(4-methoxyphenyl)-6-azaspiro[3.4]octane-6-carbonyl)pyrazin-2(1H)-one], the “mPTP Rat liver pIC50*” value with mPTP [1] was under 4.52. The “mPTP Rat brain pIC50” value in the assay on mPTP [2] is listed as under 4.52.
`CC1(C)CN(C(=O)c2cncc(O)c2)CC1c1ccccc1` (stereo not drawn) [Example 4, (3,3-dimethyl-4-phenylpyrrolidin-1-yl)(5-hydroxypyridin-3-yl)methanone]: the “mPTP Rat liver pIC50*” value in the assay with mPTP [1] is on record as 5.47. Also, in the assay with mPTP [2], the “mPTP Rat brain pIC50” value stood at 6.22.
Consider `O=C(c1nccc(=O)[nH]1)N1CC(c2ccccc2)C2(CC(F)C2)C1` (single isomer, unassigned) [Example 25d, 2-(2-fluoro-8-phenyl-6-azaspiro[3.4]octane-6-carbonyl)pyrimidin-4(3H)-one], for which the “mPTP Rat liver pIC50*” value in the assay with mPTP [1] is listed as under 4.52. For the same molecule, the “mPTP Rat brain pIC50” value with mPTP [2] was under 4.52.
In the case of `N#Cc1ccc(C2CN(C(=O)c3cncc(=O)[nH]3)CC23CCC3)cc1` (single isomer, unassigned) [Example 20b, 4-[6-(6-oxo-1H-pyrazine-2-carbonyl)-6-azaspiro[3.4]octan-8-yl]benzonitrile], the “mPTP Rat liver pIC50*” value in the assay with mPTP [1] is recorded as under 4.52. In addition, the “mPTP Rat brain pIC50” value in the assay with mPTP [2] is given as under 4.52.
As to `O=C(c1noc(=O)[nH]1)N1CC(c2ccc(F)cc2)C2(CCC2)C1` (single isomer, unassigned) [Example 41b, 3-(8-(4-fluorophenyl)-6-azaspiro[3.4]octane-6-carbonyl)-1,2,4-oxadiazol-5(4H)-one], the “mPTP Rat liver pIC50*” value in the assay with mPTP [1] is given as under 4.52. For the same molecule, the “mPTP Rat brain pIC50” value in the assay on mPTP [2] was under 4.52.
On to `O=C(c1noc(=O)[nH]1)N1CC(c2ccc(F)cc2)C2(CCC2)C1` (single isomer, unassigned) [Example 41a, 3-(8-(4-fluorophenyl)-6-azaspiro[3.4]octane-6-carbonyl)-1,2,4-oxadiazol-5(4H)-one], for which, in the assay with mPTP [1], the “mPTP Rat liver pIC50*” value stood at 5.95. In addition, the “mPTP Rat brain pIC50” value with mPTP [2] turned out to be 7.19.
Regarding `O=C(c1nccc(=O)[nH]1)N1CC(c2ccccc2)C2(CCC2)C1` (racemic) [Example 18, rac-2-{8-phenyl-6-azaspiro[3.4]octane-6-carbonyl}-3H-pyrimidin-4-one], the “mPTP Rat liver pIC50*” value in the assay with mPTP [1] came out at 5.52. For the same molecule, in the assay with mPTP [2], the “mPTP Rat brain pIC50” value came to 6.56.
In the case of `O=C(c1cc(O)no1)N1CC(c2ccc(F)cc2)C2(CCC2)C1` (single isomer, unassigned) [Example 36b, (8-(4-fluorophenyl)-6-azaspiro[3.4]octan-6-yl)(3-hydroxyisoxazol-5-yl)methanone], in the assay with mPTP [1], the “mPTP Rat liver pIC50*” value is under 4.52. Besides, the “mPTP Rat brain pIC50” value with mPTP [2] is listed as under 4.52.
For `O=C(c1cccc(=O)[nH]1)N1CC(c2ccccc2)C2(CCC2)C1` (single isomer, unassigned) [Example 26b, 6-(8-phenyl-6-azaspiro[3.4]octane-6-carbonyl)pyridin-2(1H)-one], the “mPTP Rat liver pIC50*” value with mPTP [1] is under 4.52. Further, the “mPTP Rat brain pIC50” value in the assay on mPTP [2] is under 4.52.
Take `O=C(c1cncc(=O)[nH]1)N1CC(c2ccccc2F)C2(CCC2)C1` (stereo not drawn) [Example 7, 6-(8-(2-fluorophenyl)-6-azaspiro[3.4]octane-6-carbonyl)pyrazin-2(1H)-one]: in the assay with mPTP [1], the “mPTP Rat liver pIC50*” value is 5.95. Further, in the assay on mPTP [2], the “mPTP Rat brain pIC50” value was 7.11.
Consider `CC1(C)CN(C(=O)c2cncc(=O)[nH]2)CCC1c1ccccc1` (stereo not drawn) [Example 9, 6-(3,3-dimethyl-4-phenylpiperidine-1-carbonyl)pyrazin-2(1H)-one], for which, in the assay on mPTP [1], the “mPTP Rat liver pIC50*” value was 5.28. In the assay on mPTP [2], the “mPTP Rat brain pIC50” value is 6.61.
Regarding `O=C(c1cncc(=O)[nH]1)N1CC(c2ccc(F)cc2F)C2(CCC2)C1` (single isomer, unassigned) [Example 37b, 6-(8-(2,4-difluorophenyl)-6-azaspiro[3.4]octane-6-carbonyl)pyrazin-2(1H)-one], in the assay on mPTP [1], the “mPTP Rat liver pIC50*” value is on record as under 4.52. The “mPTP Rat brain pIC50” value in the assay with mPTP [2] is reported as under 4.52.
